Assay results as given in patent EP0856015B1, “NEW POLYACRYLAMIDE MATRICES IN ELECTROPHORETIC AND CHROMATOGRAPHIC TECHNIQUES” (RIGHETTI, Pier Giorgio, priority 1995, dated 1997).

Tests used:
[1] = Hydrolysis kinetics of free monomers under mild alkaline conditions, residual monomer quantified by capillary electrophoresis; conditions: 0.1N NaOH, 70°C
[2] = Partitioning of monomers between water and n-octanol, aqueous phase analysed by CZE; type: physicochemical; conditions: 2 mM monomer, 25°C
Description: To that aim, aqueous solutions of these monomers have been subjected to partitioning against n-octanol. After partitioning, the aqueous phase is analyzed by capillary electrophoresis and the molar ratio of the various monomers in the two phases determined. […] Hydrophobicity scale of acrylamide and N-substituted derivatives. Each monomer was dissolved in aqueous solution (3.5 mL) at a concentration of 2 mM and mixed with an equal volume of n-octanol for 2 min. After phase separation, the aqueous solution is centrifuged for 75 min at 2000 rpm. All operations at 25°C. The solution, after dilution, is added with internal standard (2.5 mM of pK 9.3 Immobiline) and analyzed by CZE. For abbreviations see Fig. 1. Other abbreviations: MMA: […] ACM: N-acryloyl morpholine; […]: dideoxy […].

degradation kinetics [1] | hydrophilicity (from partition coefficients P) [2] | logP ([2]; read-out: partition coefficient P (converted)) | hydrolysis constant (K) [1] | hydrolysis constant, times smaller than that of acrylamide [1] | SMILES
a more rapid degradation kinetic |  |  |  |  | C=CC(=O)N1CCOCC1 [N-acryloyl morpholine, reference compound]
zero-order kinetics | by far the most hydrophilic molecule |  |  |  | C=CC(=O)NC(CO)(CO)CO [Trisacryl, N-acryloyl-2-amino-2-hydroxymethyl-1,3 propandiol, reference compound]
 | close to that of acrylamide | -0.62 |  |  | C=CC(=O)NCCCCO [AAB]
first order kinetics | twice as hydrophilic as acrylamide |  | 0.00013 M⁻¹ s⁻¹ | 8 times | C=CC(=O)NCCCO [AAP]
